The species entered for this assay is Homo sapiens. The assay can be described thus: Selectivity for human ERalpha over ERbeta.
For `Oc1ccc2c(c1)OCc1c-2nc2ccc(O)cc2c1Cl`, the Ratio IC50 was found to be 27.

Consider `Oc1ccc2c(c1)OCc1c-2nc2ccc(O)cc2c1-c1ccc(C(F)(F)F)cc1`, for which the Ratio IC50 came to 16. Take `CCc1cc(-c2ccc(O)cc2)nc2ccc(O)cc12`: the Ratio IC50 amounted to 12.

For the molecule `C#Cc1c2c(nc3ccc(O)cc13)-c1ccc(O)cc1OC2`, the Ratio IC50 is 12. Turning to `Oc1ccc(-c2cc(Cl)c3cc(O)ccc3n2)cc1`, the Ratio IC50 stood at 46. With `Oc1ccc2c(c1)OCc1c-2nc2ccc(O)cc2c1-c1ccc(Cl)cc1`, the Ratio IC50 worked out at 15. The figure for `N#Cc1ccc(-c2c3c(nc4ccc(O)cc24)-c2ccc(O)cc2OC3)cc1` is 16. The figure for `C=Cc1c2c(nc3ccc(O)cc13)-c1ccc(O)cc1OC2` is 24; for `N#Cc1c2c(nc3ccc(O)cc13)-c1ccc(O)cc1OC2` it is 16. `Oc1ccc2c(c1)OCc1c-2nc2ccc(O)cc2c1-c1cccc(Cl)c1`: the Ratio IC50 came out at 4. The result for `Oc1ccc2c(c1)OCc1c-2nc2ccc(O)cc2c1Br` reads 16. Turning to `COc1cccc(-c2c3c(nc4ccc(O)cc24)-c2ccc(O)cc2OC3)c1`, the Ratio IC50 was 10. The result for `C#Cc1cc(-c2ccc(O)cc2)nc2ccc(O)cc12` reads 20. The figure for `CCc1c2c(nc3ccc(O)cc13)-c1ccc(O)cc1OC2` is 14; for `COc1ccc(-c2c3c(nc4ccc(O)cc24)-c2ccc(O)cc2OC3)cc1` it is 6. The result for `N#Cc1cccc(-c2c3c(nc4ccc(O)cc24)-c2ccc(O)cc2OC3)c1` reads 8.

These data come from ChEMBL document CHEMBL1139966, “ERbeta ligands. Part 6: 6H-Chromeno[4,3-b]quinolines as a new series of estrogen receptor beta-selective ligands” (Bioorg Med Chem Lett, 2007).
